For series [1] the following is noted: residue X in AcWL-X-LL, relative to virtual glycine; cited from earlier work.
For series [2] the following is noted: humans, high dose of 5 mg/kg of body weight; cited from earlier work.
For series [3] the following is noted: free ICG as used now; cited from earlier work.
The conditions of series [4]: cited from earlier work.
Series [5] can be described thus: NIR fluorescence imaging of blood vessels and blood flow (ear, leg, blood samples) in mice. It is filed as in vivo, mouse. The conditions noted are these: for fluorescent signal in blood samples: blood collected 5-120 min after IV injection; for imaging of blood vessels in ear and leg: IV 100 μL of 40 μM, 5, 30, 60, 90, 120 min. As to the method: Adult female nude mice (Envigo), 20 g in body mass were used in the study. Fluorescent constructs were given as a single tail vein injection in amounts of 100 μL of 40 μM in PBS. Imaging of mouse ear and leg was performed at 5, 30, 60, 90 and 120 min after construct administration. At 5, 30, 60, 90 and 120 min after construct administration 5 μL of blood was withdrawn from tail (and mixed with 5 μL of anticoagulating solution to preserve blood) while animal was under anesthesia. Mice were euthanized immediately after last imaging point (120 min). Blood collected from all animals was deposited on the glass slide, dried and imaged. Imaging was performed using Novadaq clinical imaging instrument. Autofluorescence was established by imaging mouse with no injection of fluorescent constructs (the level of autofluorescence signal was insignificant compared to the signal after the constructs administration).

The conditions of series [6]: cited from earlier work. The source holds these as a separate data set.
The subject of series [7] is 4T1 murine mammary carcinoma. Description: Tumor targeting in mice bearing 4T1 tumors. The following applies: 20 μM, IV, 16 h. It is filed as in vivo, mouse. As to the method:
Adult female nude mice and female BALB/cAnNHsd mice (Envigo), 20-25 g in body mass were used in the study. Mouse mammary cancer 4T1 cells were subcutaneously implanted in the right flank (8×10^5 cells/0.1 mL/flank) of adult female BALB/cAnNHsd mice. Rat bladder cancer AY27 cells were subcutaneously implanted in the right flank (8×10^5 cells/0.1 mL/flank) of adult female nude mice. When tumors reached approximately 5-6 mm in diameter, single tail vein injection or single intraperitoneal injection of fluorophore-pHLIP® solutions in PBS were performed. Fluorescent constructs were used in amounts of 100 μL of 40 μM, or 100 μL of 20 μM, or 100 μL of 10 μM, or 100 μL of 5 μM. Imaging of mouse was performed at 16 hours after constructs administration. Skin was removed from the tumor site just before imaging while animal was under gas anesthesia, and mice were euthanized immediately after imaging. Tumor, kidney and liver were harvested, imaged and used for histopathological analysis. Imaging was performed using Stryker clinical imaging instrument. Autofluorescence was established by imaging mouse with no injection of fluorescent constructs (the level of autofluorescence signal was insignificant compared to the signal after the constructs administration).

Where a SMILES comes first, the peptide text is derived from it. Where no end group is shown, it is not given here. The star is where a group is joined. X2 = CC1(C)C(/C=C/C2=C(Oc3ccc(S(=O)(=O)O)cc3)C(=C/C=C3/N(CCCCCC(=O)NCCN4C(=O)CC(*)C4=O)c4ccc(S(=O)(=O)O)cc4C3(C)C)/CCC2)=[N+](CCCCS(=O)(=O)O)c2ccc(S(=O)(=O)[O-])cc21; X1 = CC1(C)C(/C=C/C=C/C=C/C=C2/N(CCCCCC(=O)NCCN3C(=O)CC(*)C3=O)c3ccc4ccccc4c3C2(C)C)=[N+](CCCCS(=O)(=O)[O-])c2ccc3ccccc3c21; ICG maleimide = indocyanine green maleimide

Turning to `C[C@H](N)C(=O)O` [Ala, Alanine], the “ΔGX^cor, solvation free energy of the side chain” value (“ΔGX^cor, solvation free energy” below) in series [1] is listed as “+0.65 kcal/mol”.
Regarding `N=C(N)NCCC[C@H](N)C(=O)O` [Arg, Arginine], the “ΔGX^cor, solvation free energy” value in series [1] was -0.66 kcal/mol.
In the case of `NC(=O)C[C@H](N)C(=O)O` [Asn, Asparagine], in series [1], the “ΔGX^cor, solvation free energy” value is listed as “+0.30 kcal/mol”.
Take `N[C@@H](CC(=O)O)C(=O)O` [Asp, Aspartic acid]: in series [1], the “ΔGX^cor, solvation free energy” value is -2.49 kcal/mol.
On to `N[C@@H](CCC(=O)O)C(=O)O` [Glu, Glutamic acid], for which, in series [1], the “ΔGX^cor, solvation free energy” value was -2.48 kcal/mol.
With `N[C@@H](Cc1c[nH]cn1)C(=O)O` [His, Histidine], in series [1], the “ΔGX^cor, solvation free energy” value is -1.18 kcal/mol.
Take `CC1(C)C(/C=C/C=C/C=C/C=C2\N(CCCCS(=O)(=O)[O-])c3ccc4ccccc4c3C2(C)C)=[N+](CCCCS(=O)(=O)[O-])c2ccc3ccccc3c21.[Na+]` [ICG, indocyanine green]: in series [2], the toxic effects result is on record as “No significant toxic effects”. Besides, in series [3], the imaging time is 2 to 5 min. Besides, in series [4] (after intravenous injection), the “time of appearance unconjugated in the bile” value is listed as “about 8 min”. Further, the half-life time in series [4] (following intravenous injection) is on record as 2.5 min. Besides, the “time to reach the nearest draining lymph node” value in series [4] (injected outside blood vessels) is recorded as at most 15 min.
Turning to `CC[C@H](C)[C@H](NC(=O)[C@@H]1CCCN1C(=O)[C@H](CC(N)=O)NC(=O)[C@H](CCC(N)=O)NC(=O)[C@H](CCC(=O)O)NC(=O)[C@H](CSC1CC(=O)N(CCNC(=O)CCCCCN2/C(=C/C=C/C=C/C=C/C3=[N+](CCCCS(=O)(=O)[O-])c4ccc5ccccc5c4C3(C)C)C(C)(C)c3c2ccc2ccccc32)C1=O)NC(=O)[C@H](C)N)C(=O)N[C@@H](Cc1ccc(O)cc1)C(=O)N[C@@H](Cc1c[nH]c2ccccc12)C(=O)N[C@@H](C)C(=O)N[C@@H](CCCNC(=N)N)C(=O)N[C@@H](Cc1ccc(O)cc1)C(=O)N[C@@H](C)C(=O)N[C@@H](CC(N)=O)C(=O)N[C@@H](Cc1c[nH]c2ccccc12)C(=O)N[C@@H](CC(C)C)C(=O)N[C@@H](Cc1ccccc1)C(=O)N[C@H](C(=O)N[C@H](C(=O)N1CCC[C@H]1C(=O)N[C@@H](CC(C)C)C(=O)N[C@@H](CC(C)C)C(=O)N[C@@H](CC(C)C)C(=O)N[C@@H](CC(C)C)C(=O)N[C@@H](CC(N)=O)C(=O)N[C@@H](CC(C)C)C(=O)N[C@@H](C)C(=O)N[C@@H](CC(C)C)C(=O)N[C@@H](CC(C)C)C(=O)N[C@H](C(=O)N[C@@H](CC(=O)O)C(=O)N[C@@H](C)C(=O)N[C@@H](CC(=O)O)C(=O)N[C@@H](CCC(=O)O)C(=O)NCC(=O)N[C@H](C(=O)O)[C@@H](C)O)C(C)C)[C@@H](C)O)[C@@H](C)O` (some centres unmarked) [ICG-NpHLIP®] (H-AC(X1)EQNPIYWARYANWLFTTPLLLLNLALLVDADEGT-OH), the “fluorescent signal in blood samples” value in series [5] was “significantly reduced signal”.
Consider `CC[C@H](C)[C@H](NC(=O)[C@@H]1CCCN1C(=O)[C@H](CC(N)=O)NC(=O)[C@H](CCC(N)=O)NC(=O)[C@H](CCC(=O)O)NC(=O)[C@H](CSC1CC(=O)N(CCNC(=O)CCCCCN2/C(=C/C=C/C=C/C=C/C3=[N+](CCCCS(=O)(=O)[O-])c4ccc5ccccc5c4C3(C)C)C(C)(C)c3c2ccc2ccccc32)C1=O)NC(=O)[C@H](C)N)C(=O)N[C@@H](Cc1ccc(O)cc1)C(=O)N[C@@H](Cc1c[nH]c2ccccc12)C(=O)N[C@@H](C)C(=O)N[C@@H](CCCNC(=N)N)C(=O)N[C@@H](Cc1ccc(O)cc1)C(=O)N[C@@H](C)C(=O)N[C@@H](CC(=O)O)C(=O)N[C@@H](Cc1c[nH]c2ccccc12)C(=O)N[C@@H](CC(C)C)C(=O)N[C@@H](Cc1ccccc1)C(=O)N[C@H](C(=O)N[C@H](C(=O)N1CCC[C@H]1C(=O)N[C@@H](CC(C)C)C(=O)N[C@@H](CC(C)C)C(=O)N[C@@H](CC(C)C)C(=O)N[C@@H](CC(C)C)C(=O)N[C@@H](CC(=O)O)C(=O)N[C@@H](CC(C)C)C(=O)N[C@@H](C)C(=O)N[C@@H](CC(C)C)C(=O)N[C@@H](CC(C)C)C(=O)N[C@H](C(=O)N[C@@H](CC(=O)O)C(=O)N[C@@H](C)C(=O)N[C@@H](CC(=O)O)C(=O)N[C@@H](CCC(=O)O)C(=O)NCC(=O)N[C@H](C(=O)O)[C@@H](C)O)C(C)C)[C@@H](C)O)[C@@H](C)O` (some centres unmarked) [ICG-WT pHLIP®], for which the “fluorescent signal in blood samples” value in series [5] was “persistence of strong fluorescent signal within 2 hours”.
As for `C#CCNC(=O)CCCCC[N+]1=C(/C=C/C=C/C=C/C=C2\N(CCCCS(=O)(=O)[O-])c3ccc4ccccc4c3C2(C)C)C(C)(C)c2c1ccc1ccccc21` [ICG-alkyne], the Solubility result in series [6] is recorded as “DMSO, DMF, Acetonitrile, Methanol”.
`CC(C)C[C@H](NC(=O)[C@H](Cc1ccc(O)cc1)NC(=O)[C@H](C)NC(=O)[C@H](CCCNC(=N)N)NC(=O)[C@H](Cc1c[nH]c2ccccc12)NC(=O)[C@@H]1CCCN1C(=O)[C@H](CC(N)=O)NC(=O)[C@H](CCC(N)=O)NC(=O)[C@H](CC(=O)O)NC(=O)[C@H](CC(=O)O)NC(=O)[C@H](CSC1CC(=O)N(CCNC(=O)CCCCCN2/C(=C/C=C3\CCCC(/C=C/C4=[N+](CCCCS(=O)(=O)O)c5ccc(S(=O)(=O)[O-])cc5C4(C)C)=C3Oc3ccc(S(=O)(=O)O)cc3)C(C)(C)c3cc(S(=O)(=O)O)ccc32)C1=O)NC(=O)[C@H](C)N)C(=O)N[C@@H](CC(=O)O)C(=O)N[C@@H](CC(C)C)C(=O)N[C@@H](CC(C)C)C(=O)N[C@@H](Cc1ccccc1)C(=O)N1CCC[C@H]1C(=O)N[C@H](C(=O)N[C@@H](CC(=O)O)C(=O)N[C@H](C(=O)N[C@@H](CC(C)C)C(=O)N[C@@H](CC(C)C)C(=O)N[C@@H](CC(C)C)C(=O)N[C@@H](CC(=O)O)C(=O)N[C@@H](CC(C)C)C(=O)N[C@@H](CC(C)C)C(=O)N[C@@H](Cc1c[nH]c2ccccc12)C(=O)N[C@@H](C)C(=O)O)[C@@H](C)O)[C@@H](C)O` (some centres unmarked) [IR800-Var3] (H-AC(X2)DDQNPWRAYLDLLFPTDTLLLDLLWA-OH): in series [7], the organ of clearance result is reported as “cleared by the kidney”.
Take `NCCCC[C@H](N)C(=O)O` [Lys, Lysine]: in series [1], the “ΔGX^cor, solvation free energy” value is -1.65 kcal/mol.
Regarding `CSCC[C@H](N)C(=O)O` [Met, Methionine], in series [1], the “ΔGX^cor, solvation free energy” value is “+1.82 kcal/mol”.
Consider `N[C@@H](Cc1ccccc1)C(=O)O` [Phe, Phenylalanine], for which the “ΔGX^cor, solvation free energy” value in series [1] is on record as “+2.86 kcal/mol”.
In the case of `O=C(O)[C@@H]1CCCN1` [Pro, Proline], the “ΔGX^cor, solvation free energy” value in series [1] is given as “+1.01 kcal/mol”.
In the case of `N[C@@H](CO)C(=O)O` [Ser, Serine], the “ΔGX^cor, solvation free energy” value in series [1] is listed as “+0.69 kcal/mol”.
For the compound `C[C@@H](O)[C@H](N)C(=O)O` [Thr, Threonine], the “ΔGX^cor, solvation free energy” value in series [1] is on record as “+0.90 kcal/mol”.
On to `N[C@@H](Cc1c[nH]c2ccccc12)C(=O)O` [Trp, Tryptophan], for which the “ΔGX^cor, solvation free energy” value in series [1] is given as “+3.24 kcal/mol”.
Regarding `N[C@@H](Cc1ccc(O)cc1)C(=O)O` [Tyr, Tyrosine], the “ΔGX^cor, solvation free energy” value in series [1] was “+1.86 kcal/mol”.
In the case of `CC(C)[C@H](N)C(=O)O` [Val, Valine], the “ΔGX^cor, solvation free energy” value in series [1] is “+1.61 kcal/mol”.
On to “ICG-Hum pHLIP®: ICG maleimide conjugated to Cys of Hum pHLIP® GCDNNEGFFATLGGEIPLWSDVVLAIEG (SEQ ID NO: 446) (GC(ICG maleimide)DNNEGFFATLGGEIPLWSDVVLAIEG)”, for which the “imaging of blood vessels in ear and leg” value in series [5] is “slow in reaching the best imagibility condition and was fast in decaying”.
The same measure, in the same setting: for “IR800-WT: IR800 maleimide conjugated to Cys of WT pHLIP® peptide (SEQ ID NO: 444) (AC(IR800 maleimide)EQNPIYWARYADWLFTTPLLLLDLALLVDADEGT)” the value was “better in imaging of blood vessels, however not nearly as good as ICG-WT and ICG-Var3 pHLIP®s”.
